Results on 1 compound are retold here after patent US11110139B2, “Application of anthocyanin extract in preparing pharmaceutical composition for preventing and treating cardiac toxicity induced by anthracyclines and pharmaceutical composition” (Northwest Institute of Plateau Biology, Chinese Academy of …, priority 2017, dated 2021).

Data set [1] concerns rat cardiomyocyte cell line H9c2. Type of data set: cell-based. Conditions: 24 h, 20 μM. Here is the method: A rat cardiomyocyte cell line H9c2: a DMEM culture medium (containing 10% new-born calf serum, 2 mM glutamate and 1% streptomycin/penicillin) was employed to culture, and a culture condition was an aseptic environment at 37° C. and 5% CO2. The culture medium was replaced once every 2-3 d, and when cells were cultured for 24 h and 80% were aggregated, was transferred to a 96-well plate with a cell density being 1×10^5/well; after the cells were continued to culture for 24 h, a medicament treatment was performed. A control group, a model group (containing 20 μM DOX), and a nitraria anthocyanin extract experimental group (containing 20 μM DOX and 5-500 μg/mL nitraria anthocyanin extract) were respectively provided, and after they were treated for 24 h, a cell viability was detected by an MTT method.

For data set [2] the test system is unchanged. In kind it is cell-based. The conditions noted are these: 24 h, 20 μM. Here is the method:
(§1) A rat cardiomyocyte cell line H9c2: a DMEM culture medium (containing 10% new-born calf serum, 2 mM glutamate and 1% streptomycin/penicillin) was employed to culture, and a culture condition was an aseptic environment at 37° C. and 5% CO2. The culture medium was replaced once every 2-3 d, and when cells were cultured for 24 h and 80% were aggregated, a medicament treatment was performed. A control group, a model group (containing 20 μM DOX), and a nitraria anthocyanin extract experimental group (containing 20 μM DOX and 5-500 μg/mL nitraria anthocyanin extract) were respectively provided, after they were treated for 24 h, an extracellular fluid was collected, and LDH and CK levels in the extracellular fluid were detected by employing LDH and CK array kits.
The source holds these as a separate data set.

For data set [3] the test system is unchanged. Type of data set: cell-based. The conditions noted are these: 24 h, 20 μM. As to the method: as §1, with “C02.” for “CO2.”, “provided, and” for “provided,”, “a change in cardiomyocyte apoptosis” for “an extracellular fluid”, “was” for “was collected, and LDH and CK levels in the extracellular fluid were”, “by a flow cytometer according to operating instructions of a kit by” for “by”, “an FITC-Annexin V/propidium iodide (PI) fluorescence double staining method.” for “LDH and CK array kits.”
This is another data set of the same source.

In data set [4] the test system is bcl-2, bax, caspase-3 and caspase-9 protein expression in H9c2. As to the kind of experiment: Western blot of bcl-2, bax, caspase-3 and caspase-9 in H9c2. In kind it is cell-based, rat. The conditions noted are these: H9c2, 20 μM DOX alone, 24 h. Here is the method:
A rat cardiomyocyte cell line H9c2: a DMEM culture medium (containing 10% new-born calf serum, 2 mM glutamate and 1% streptomycin/penicillin) was employed to culture, and a culture condition was an aseptic environment at 37° C. and 5% CO2. The culture medium was replaced once every 2-3 d, and when cells were cultured for 24 h and 80% were aggregated, a medicament treatment was performed. A control group, a model group (containing 20 μM DOX), and a nitraria anthocyanin extract experimental group (containing 20 μM DOX and 5-500 μg/mL nitraria anthocyanin extract) were respectively provided, and after they were treated for 24 h, the cells were scrapped, and were collected by centrifugation; and after being cleaned by a phosphate buffer, the cells were resuspended in a lysis buffer. After cell debrises were removed by the centrifugation, a supernatant was collected and a soluble protein concentration was determined using a BCA protein concentration assay kit. A protein solute, after being separated by 12% SDS-PAGE electrophoresis, was transferred to a PVDF membrane and thereafter was labeled by bcl-2, bax, caspase-3 and caspase-9 antibodies. An optical density of a band was determined by Quantity One software (v4.62, American Bio-Rad Company). And αβ-tubulin was taken as a protein sample loading internal reference substance.
(Immunoblotting shows a protein as a band on a membrane.)

The test system of data set [5] is rat cardiomyocyte cell line H9c2. As to the kind of experiment: Aggregated level of cardiomyocyte ROS (DCFH-DA, flow cytometer). Type of data set: cell-based. Conditions: H9c2, 20 μM DOX alone, 24 h. As to the method:
A rat cardiomyocyte cell line H9c2: a DMEM culture medium (containing 10% new-born calf serum, 2 mM glutamate and 1% streptomycin/penicillin) was employed to culture, and a culture condition was an aseptic environment at 37° C. and 5% CO2. The culture medium was replaced once every 2-3 d, and when cells were cultured for 24 h and 80% were aggregated, a medicament treatment was performed. A control group, a model group (containing 20 μM DOX), and a nitraria anthocyanin extract experimental group (containing 20 μM DOX and 5-500 μg/mL nitraria anthocyanin extract) were respectively provided, and after they were treated for 24 h, 2′, 7′-dichlorodihydro-fluorescein diacetate (DCFH-DA, 20 μM) was added to incubate for 20 min at 37° C., and a flow cytometer was employed to detect an aggregated level of cardiomyocyte ROS. According to experimental results (as shown in FIG. 8), after the 20 μM DOX is treated for 24 h, the aggregated level of the cardiomyocyte ROS is increased to 3.5 times of a normal cell; and after the DOX and the 5-500 μg/mL nitraria anthocyanin extract are co-treated for 24 h, the aggregated level of the cardiomyocyte ROS only is 2.16-3.29 times of the normal cell.
In general terms: In flow cytometry, cells or beads pass a laser one at a time.

The structures appear in SMILES notation.

In the case of `COc1cccc2c1C(=O)c1c(O)c3c(c(O)c1C2=O)C[C@@](O)(C(=O)CO)C[C@@H]3O[C@H]1C[C@H](N)[C@H](O)[C@H](C)O1` [DOX, doxorubicin], the “cell viability, of a normal cell” value in data set [1] is 62.12%. In data set [2], the “CK level in the extracellular fluid, times of a normal cell” value is given as 2.87 times and the “LDH level in the extracellular fluid, times of a normal cell” value worked out at 2.65 times. Besides, the “number of FITC-Annexin V positive cells” value in data set [3] is on record as 1.49%. In addition, in data set [4], the “Bax/Bcl-2 protein expression ratio versus normal cell” value is listed as “increased to two times of a normal cell”; the bax protein expression entry was “significantly increased”; the bcl-2 protein expression entry is listed as “significantly reduced”; the “protein expression of cut and activated caspase-3” value is “significantly increased”. For the same compound, the “protein expression of cut and activated caspase-9” value in data set [4] is recorded as “significantly increased”. Besides, the “aggregated level of cardiomyocyte ROS, times of a normal cell” value in data set [5] was determined as 3.5 times.
